Results: patent US9695155B2, “Herbicidal substituted pyrimidinyloxy benzene compounds” (E. I. DU PONT DE NEMOURS AND COMPANY, priority 2013, dated 2017)

Tests used:
rice [1] = test: Test B flooded paddy test; format: in vivo, Oryza sativa; settings: Flood, 250 g ai/ha; 0 to 100 scale where 0 is no effect and 100 is complete control
Outline: (§1)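 2-leaf stage plants; pots flooded to 3 cm, compound added to paddy water, depth maintained. Greenhouse 13–15 d. Visual rating vs untreated controls, 0 (no effect) to 100 (complete control); dash = no result.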

velvetleaf [2] = test: Test A postemergence; format: in vivo, Abutilon theophrasti
Outline: (§2)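 Scoring: eye-based comparison with untreated controls, 0 for no effect through 100 for complete control, at about day 10. Treatments: directed soil spray preemergence; foliar spray postemergence on 2–10 cm plants at the one- to two-leaf stage. Medium: loam soil with sand.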

pigweed [3] = test: Test A postemergence; format: in vivo, Amaranthus retroflexus
Outline: as §2

velvetleaf [4] = test: Test A preemergence; format: in vivo, Abutilon theophrasti
Outline: as §2

barnyardgrass [5] = test: Test B flooded paddy test; format: in vivo, Echinochloa crus-galli; settings: Flood, 250 g ai/ha; 0 to 100 scale where 0 is no effect and 100 is complete control
Outline: as §1

barnyardgrass [6] = test: Test C flooded paddy test; format: in vivo, Echinochloa crus-galli; settings: Flood, scale 0 to 100 (0 no effect, 100 complete control), 13 to 15 days
Description: (§3) At time of treatment, test pots were flooded to 3 cm above the soil surface, treated by application of test compounds directly to the paddy water, and then maintained at that water depth for the duration of the test. Treated plants and controls were maintained in a greenhouse for 13 to 15 days, after which time all species were compared to controls and visually evaluated. […] A dash (-) response means no test result.

sedge, umbrella [7] = test: Test B flooded paddy test; format: in vivo, Cyperus difformis; settings: Flood, 250 g ai/ha; 0 to 100 scale where 0 is no effect and 100 is complete control
Outline: as §1

morningglory [8] = test: Test A postemergence; format: in vivo, Ipomoea spp.
Outline: as §2

giant foxtail [9] = test: Test A postemergence; format: in vivo, Setaria faberii
Outline: as §2

corn [10] = test: Test A preemergence; format: in vivo, Zea mays
Outline: as §2

large (Lg) crabgrass [11] = test: Test A postemergence; format: in vivo, Digitaria sanguinalis
Outline: as §2

sedge, umbrella [12] = test: Test C flooded paddy test; format: in vivo, Cyperus difformis; settings: Flood, scale 0 to 100 (0 no effect, 100 complete control), 13 to 15 days
Description: as §3

corn [13] = test: Test A postemergence; format: in vivo, Zea mays
Outline: as §2

wheat [14] = test: Test A postemergence; format: in vivo, Triticum aestivum
Outline: as §2

ducksalad = test: Test C flooded paddy test; format: in vivo, Heteranthera limosa; settings: Flood, scale 0 to 100 (0 no effect, 100 complete control), 13 to 15 days
Description: as §3

rice [15] = test: Test C flooded paddy test; format: in vivo, Oryza sativa; settings: Flood, scale 0 to 100 (0 no effect, 100 complete control), 13 to 15 days
Description: as §3

barnyardgrass [16] = test: Test A preemergence; format: in vivo, Echinochloa crus-galli
Outline: as §2

morningglory [17] = test: Test A preemergence; format: in vivo, Ipomoea spp.
Outline: as §2

Heteranthera limosa = test: Test B flooded paddy test; format: in vivo; settings: Flood, 250 g ai/ha; 0 to 100 scale where 0 is no effect and 100 is complete control
Outline: as §1

giant foxtail [18] = test: Test A preemergence; format: in vivo, Setaria faberii
Outline: as §2

wheat [19] = test: Test A preemergence; format: in vivo, Triticum aestivum
Outline: as §2

pigweed [20] = test: Test A preemergence; format: in vivo, Amaranthus retroflexus
Outline: as §2

barnyardgrass [21] = test: Test A postemergence; format: in vivo, Echinochloa crus-galli
Outline: as §2

large (Lg) crabgrass [22] = test: Test A preemergence; format: in vivo, Digitaria sanguinalis
Outline: as §2

[23] = 125 g ai/ha, 0 to 100 scale where 0 is no effect and 100 is complete control
[24] = 500 g ai/ha, 0 to 100 scale, 0 no effect, 100 complete control
[25] = 500 g ai/ha, 0 to 100 scale, 0 no effect, 100 complete control, approx. 10 days

Compound: Brc1cnc(Oc2ccccc2-n2cc(Br)cn2)nc1 [Compound 8]
- Plant response rating, Rice (rice [1]): 30
- Plant response rating, Velvetleaf (velvetleaf [2]; [23]): 100
- Plant response rating, Velvetleaf (velvetleaf [2]; [24]): 100
- Plant response rating, Pigweed (pigweed [3]; [23]): 100
- Plant response rating, Pigweed (pigweed [3]; [24]): 100
- Velvetleaf plant response rating (velvetleaf [4]; [23]): 100
- Velvetleaf plant response rating (velvetleaf [4]; [25]): 100
- Plant response rating, Barnyardgrass (barnyardgrass [5]): 0
- Plant response rating, Barnyardgrass (barnyardgrass [6]; 31 g ai/ha): 0
- Plant response rating, Barnyardgrass (barnyardgrass [6]; 62 g ai/ha): 0
- Plant response rating, Barnyardgrass (barnyardgrass [6]; 125 g ai/ha): 0
- Plant response rating, Barnyardgrass (barnyardgrass [6]; 250 g ai/ha): 0
- Plant response rating, Sedge, Umbrella (sedge, umbrella [7]): 80
- Plant response rating, Morningglory (morningglory [8]; [23]): 70
- Plant response rating, Morningglory (morningglory [8]; [24]): 100
- Plant response rating, Foxtail, Giant (giant foxtail [9]; [23]): 50
- Plant response rating, Foxtail, Giant (giant foxtail [9]; [24]): 90
- Corn plant response rating (corn [10]; [23]): 0
- Corn plant response rating (corn [10]; [25]): 0
- Plant response rating, Crabgrass, Large (large (Lg) crabgrass [11]; [23]): 50
- Plant response rating, Crabgrass, Large (large (Lg) crabgrass [11]; [24]): 90
- Plant response rating, Sedge, Umbrella (sedge, umbrella [12]; 31 g ai/ha): 0
- Plant response rating, Sedge, Umbrella (sedge, umbrella [12]; 62 g ai/ha): 50
- Plant response rating, Sedge, Umbrella (sedge, umbrella [12]; 125 g ai/ha): 75
- Plant response rating, Sedge, Umbrella (sedge, umbrella [12]; 250 g ai/ha): 85
- Plant response rating, Corn (corn [13]; [23]): 0
- Plant response rating, Corn (corn [13]; [24]): 30
- Plant response rating, Wheat (wheat [14]; [23]): 0
- Plant response rating, Wheat (wheat [14]; [24]): 20
- Plant response rating, Ducksalad (ducksalad; 31 g ai/ha): 0
- Plant response rating, Ducksalad (ducksalad; 62 g ai/ha): 40
- Plant response rating, Ducksalad (ducksalad; 125 g ai/ha): 50
- Plant response rating, Ducksalad (ducksalad; 250 g ai/ha): 70
- Plant response rating, Rice (rice [15]; 31 g ai/ha): 0
- Plant response rating, Rice (rice [15]; 62 g ai/ha): 0
- Plant response rating, Rice (rice [15]; 125 g ai/ha): 10
- Plant response rating, Rice (rice [15]; 250 g ai/ha): 10
- Barnyardgrass plant response rating (barnyardgrass [16]; [23]): 50
- Barnyardgrass plant response rating (barnyardgrass [16]; [25]): 90
- Morningglory plant response rating (morningglory [17]; [23]): 20
- Morningglory plant response rating (morningglory [17]; [25]): 30
- Plant response rating, Ducksalad (Heteranthera limosa): 100
- Foxtail, Giant plant response rating (giant foxtail [18]; [23]): 70
- Foxtail, Giant plant response rating (giant foxtail [18]; [25]): 100
- Wheat plant response rating (wheat [19]; [23]): 0
- Wheat plant response rating (wheat [19]; [25]): 0
- Pigweed plant response rating (pigweed [20]; [23]): 90
- Pigweed plant response rating (pigweed [20]; [25]): 100
- Plant response rating, Barnyardgrass (barnyardgrass [21]; [23]): 30
- Plant response rating, Barnyardgrass (barnyardgrass [21]; [24]): 90
- Crabgrass, Large plant response rating (large (Lg) crabgrass [22]; [23]): 80
- Crabgrass, Large plant response rating (large (Lg) crabgrass [22]; [25]): 100

Compound: Cc1ccc(Oc2ncc(Cl)cn2)c(-n2cc(Br)cn2)c1 [Compound 40]
- Plant response rating, Rice (rice [1]): 15
- Plant response rating, Velvetleaf (velvetleaf [2]; [23]): 100
- Plant response rating, Velvetleaf (velvetleaf [2]; [24]): 100
- Plant response rating, Pigweed (pigweed [3]; [23]): 40
- Plant response rating, Pigweed (pigweed [3]; [24]): 60
- Plant response rating, Velvetleaf (velvetleaf [4]; [23]): 50
- Velvetleaf plant response rating (velvetleaf [4]; [25]): 70
- Plant response rating, Barnyardgrass (barnyardgrass [5]): 20
- Plant response rating, Barnyardgrass (barnyardgrass [6]; 31 g ai/ha): 0
- Plant response rating, Barnyardgrass (barnyardgrass [6]; 62 g ai/ha): 0
- Plant response rating, Barnyardgrass (barnyardgrass [6]; 125 g ai/ha): 15
- Plant response rating, Barnyardgrass (barnyardgrass [6]; 250 g ai/ha): 15
- Plant response rating, Sedge, Umbrella (sedge, umbrella [7]): 80
- Plant response rating, Morningglory (morningglory [8]; [23]): 70
- Plant response rating, Morningglory (morningglory [8]; [24]): 100
- Plant response rating, Foxtail, Giant (giant foxtail [9]; [23]): 10
- Plant response rating, Foxtail, Giant (giant foxtail [9]; [24]): 60
- Plant response rating, Corn (corn [10]; [23]): 0
- Corn plant response rating (corn [10]; [25]): 0
- Plant response rating, Crabgrass, Large (large (Lg) crabgrass [11]; [23]): 50
- Plant response rating, Crabgrass, Large (large (Lg) crabgrass [11]; [24]): 70
- Plant response rating, Sedge, Umbrella (sedge, umbrella [12]; 31 g ai/ha): 50
- Plant response rating, Sedge, Umbrella (sedge, umbrella [12]; 62 g ai/ha): 75
- Plant response rating, Sedge, Umbrella (sedge, umbrella [12]; 125 g ai/ha): 75
- Plant response rating, Sedge, Umbrella (sedge, umbrella [12]; 250 g ai/ha): 75
- Plant response rating, Corn (corn [13]; [23]): 0
- Plant response rating, Corn (corn [13]; [24]): 0
- Plant response rating, Wheat (wheat [14]; [23]): 0
- Plant response rating, Wheat (wheat [14]; [24]): 0
- Plant response rating, Ducksalad (ducksalad; 31 g ai/ha): 0
- Plant response rating, Ducksalad (ducksalad; 62 g ai/ha): 0
- Plant response rating, Ducksalad (ducksalad; 125 g ai/ha): 40
- Plant response rating, Ducksalad (ducksalad; 250 g ai/ha): 60
- Plant response rating, Rice (rice [15]; 31 g ai/ha): 0
- Plant response rating, Rice (rice [15]; 62 g ai/ha): 0
- Plant response rating, Rice (rice [15]; 125 g ai/ha): 0
- Plant response rating, Rice (rice [15]; 250 g ai/ha): 0
- Plant response rating, Barnyardgrass (barnyardgrass [16]; [23]): 40
- Barnyardgrass plant response rating (barnyardgrass [16]; [25]): 50
- Plant response rating, Morningglory (morningglory [17]; [23]): 0
- Morningglory plant response rating (morningglory [17]; [25]): 0
- Plant response rating, Ducksalad (Heteranthera limosa): 80
- Plant response rating, Foxtail, Giant (giant foxtail [18]; [23]): 10
- Foxtail, Giant plant response rating (giant foxtail [18]; [25]): 60
- Plant response rating, Wheat (wheat [19]; [23]): 0
- Wheat plant response rating (wheat [19]; [25]): 0
- Plant response rating, Pigweed (pigweed [20]; [23]): 0
- Pigweed plant response rating (pigweed [20]; [25]): 50
- Plant response rating, Barnyardgrass (barnyardgrass [21]; [23]): 0
- Plant response rating, Barnyardgrass (barnyardgrass [21]; [24]): 20
- Plant response rating, Crabgrass, Large (large (Lg) crabgrass [22]; [23]): 60
- Crabgrass, Large plant response rating (large (Lg) crabgrass [22]; [25]): 80
